Reference: ChEMBL document CHEMBL2203167, “Structural modifications of 5,6-dihydroxypyrimidines with anti-HIV activity” (Bioorg Med Chem Lett, 2012)

Key:
[1] = Cytotoxicity against human C8166 cells after 3 days by MTT assay; assay type: cell-based
[2] = Therapeutic index, ratio of CC50 for human C8166 cells to EC50 for HIV1 3B; assay type: cell-based; conditions: read-out: Ratio CC50/EC50
[3] = test system: Human immunodeficiency virus 1; assay: Antiviral activity against HIV1 3B infected in human C8166 cells assessed as inhibition of syncytia after 3 days; assay type: functional, organism-based; conditions: Human immunodeficiency virus 1, 3B, C8166, 72 h

`COc1ccc(CNC(=O)c2nc(C(C)(C)NC(=O)OCc3ccccc3)nc(O)c2O)cc1` gave a CC50 at 72 h [1] of 164 µM, a selectivity ratio [2] of 1090 and an EC50 [3] of 0.15 µM.

With `COc1cc(CNC(=O)c2nc(C(C)(C)NC(=O)OCc3ccccc3)nc(O)c2O)cc(OC)c1OC` the CC50 at 72 h [1] was 110 µM, the selectivity ratio [2] was 8.89 and the EC50 [3] was 12.3 µM.

`CC(C)(NC(=O)OCc1ccccc1)c1nc(O)c(O)c(C(=O)NCCc2ccc(F)cc2)n1` showed a CC50 at 72 h [1] of 35.4 µM, a selectivity ratio [2] of 4.11 and an EC50 [3] of 8.61 µM.

`CC(C)(NC(=O)OCc1ccccc1)c1nc(O)c(O)c(C(=O)NCCc2ccccc2)n1` gave a CC50 at 72 h [1] of 38.5 µM, a selectivity ratio [2] of 3.32 and an EC50 [3] of 11.6 µM.

`CC(C)(NC(=O)OCc1ccccc1)c1nc(O)c(O)c(C(=O)NCCc2cc3ccccc3[nH]2)n1` showed a CC50 at 72 h [1] of 34.1 µM, a selectivity ratio [2] of 4.76 and an EC50 [3] of 7.12 µM.

With `COCCNC(=O)c1nc(C(C)(C)NC(=O)OCc2ccccc2)nc(O)c1O` the CC50 at 72 h [1] was 348 µM, the selectivity ratio [2] was 13.4 and the EC50 [3] was 26 µM.

Work on `COCCCNC(=O)c1nc(C(C)(C)NC(=O)OCc2ccccc2)nc(O)c1O` yielded a CC50 at 72 h [1] of 259 µM, a selectivity ratio [2] of 31.2 and an EC50 [3] of 8.3 µM.

Work on `CC(C)(NC(=O)OCc1ccccc1)c1nc(O)c(O)c(C(=O)NCC2CC2)n1` yielded a CC50 at 72 h [1] of 204 µM, a selectivity ratio [2] of 8.33 and an EC50 [3] of 24.4 µM.

With `CC(C)(NC(=O)OCc1ccccc1)c1nc(O)c(O)c(C(=O)NN)n1` the CC50 at 72 h [1] was over 500 µM, the selectivity ratio [2] was over 3.37 and the EC50 [3] was 164 µM.

Work on `CC(C)(NC(=O)OCc1ccccc1)c1nc(O)c(O)c(C(=O)N/N=C/c2ccc(F)cc2)n1` yielded a CC50 at 72 h [1] of 378 µM, a selectivity ratio [2] of 13.7 and an EC50 [3] of 27.7 µM.

For `CC(C)(NC(=O)OCc1ccccc1)c1nc(O)c2oc(=O)[nH]c2n1`, the CC50 at 72 h [1] was over 500 µM, the selectivity ratio [2] was over 7.83 and the EC50 [3] was 74.2 µM.

With `CC(C)(NC(=O)OCc1ccccc1)c1nc(O)c(O)c(NC(=O)NCc2ccc(F)cc2)n1` the CC50 at 72 h [1] was 81.1 µM, the selectivity ratio [2] was 8.21 and the EC50 [3] was 9.87 µM.

Molecule `COc1ccc(CNC(=O)Nc2nc(C(C)(C)NC(=O)OCc3ccccc3)nc(O)c2O)cc1` has a CC50 at 72 h [1] of over 500 µM, a selectivity ratio [2] of 4.46 and an EC50 [3] of 93.2 µM.

Molecule `COCCNC(=O)Nc1nc(C(C)(C)NC(=O)OCc2ccccc2)nc(O)c1O` has a CC50 at 72 h [1] of over 500 µM, a selectivity ratio [2] of over 9.13 and an EC50 [3] of 52.3 µM.

Molecule `CC(C)(NC(=O)OCc1ccccc1)c1nc(O)c(O)c(C(=O)NCc2ccccc2)n1` has a CC50 at 72 h [1] of 41.4 µM, a selectivity ratio [2] of 128 and an EC50 [3] of 0.32 µM.

In the case of `CC(C)(NC(=O)OCc1ccccc1)c1nc(O)c(O)c(C(=O)NCc2ccccc2Cl)n1`, the CC50 at 72 h [1] is reported as 53.9 µM, the selectivity ratio [2] is reported as 396 and the EC50 [3] is reported as 0.14 µM.

`Cc1ccc(CNC(=O)c2nc(C(C)(C)NC(=O)OCc3ccccc3)nc(O)c2O)cc1` gave a CC50 at 72 h [1] of 234 µM, a selectivity ratio [2] of 383 and an EC50 [3] of 0.55 µM.

In the case of `CC(C)(NC(=O)OCc1ccccc1)c1nc(O)c(O)c(C(=O)NCc2ccc(C(F)(F)F)cc2)n1`, the CC50 at 72 h [1] is reported as 58.1 µM, the selectivity ratio [2] is reported as 244 and the EC50 [3] is reported as 0.24 µM.

Molecule `Cc1cn([C@H]2C[C@H](N=[N+]=[N-])[C@@H](CO)O2)c(=O)[nH]c1=O` [ZIDOVUDINE] has a selectivity ratio [2] of 274000 and an EC50 [3] of 0.019 µM.
